PubChem BioAssay (NCI)
“And” between values parts separate entries of the source, which are not always exact repeats. Equal values may be shown once.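 Tested at 5 concentrations; 48 h exposure; 96-well plates; endpoints linearly interpolated, else capped at highest concentration. Abbreviation: GI50, concentration required for 50% inhibition of growth. TGI: total growth inhibition.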

Experiments:
Assay in all cases: NCI tumour cell line growth inhibition, 48 h
[1] = tested on: ACHN renal
[2] = tested on: DU-145 prostate
[3] = tested on: EKVX NSCLC
[4] = tested on: HCC-2998 colon
[5] = tested on: HOP-92 NSCLC
[6] = tested on: MDA-N
[7] = tested on: SK-MEL-28 melanoma
[8] = tested on: SNB-19 CNS
[9] = tested on: A498 renal
[10] = tested on: OVCAR-3 ovarian

Row | Compound | TGI [1] | TGI [2] | TGI [3] | TGI [4] | TGI [5] | TGI [6] | TGI [7] | TGI [8] | TGI [9] | TGI [10] | GI50 [5]
1 | O=c1oc2ccc([N+](=O)[O-])cc2cc1-c1csc(-c2ccccc2)n1 | > 100 µM | > 100 µM | > 100 µM | > 100 µM | > 100 µM | > 100 µM | > 100 µM | > 100 µM |  |  | 
2 | CC(=O)Nc1ccc2cc3c(nc2n1)c1cccnc1n3S(=O)(=O)c1ccccc1 | > 100 µM |  | > 100 µM | > 100 µM | > 100 µM | > 100 µM | > 100 µM | > 100 µM | > 100 µM | > 100 µM | 
3 | CCOC1=NC(C(F)(F)F)(C(F)(F)F)N=C(/N=C(/N)N(C)C(C(C)C)P(=O)(OC(C)C)OC(C)C)O1 (stereo not given) | > 100 µM | > 100 µM | > 100 µM | > 100 µM |  | > 100 µM | > 100 µM | > 100 µM | > 100 µM | > 100 µM | 
4 | [B]C(=O)NC(CC(C)C)C(=O)NC1c2ccsc2C(=O)C1O (stereo not given) (tested in a mixture with another compound) | > 100 µM | > 100 µM | > 100 µM | > 100 µM | > 100 µM | > 100 µM | > 100 µM | > 100 µM | > 100 µM |  | 44.6 µM and > 100 µM
5 | C=C(C)[C@H]1C=C[C@@H](OC(C)=O)[C@@]2(COC(C)=O)[C@H](OC(=O)CCC)[C@H]3[C@@H](OC(C)=O)[C@@H](C)C[C@]3(O)C(=O)[C@@](C)(OC(C)=O)[C@H]12 | > 100 µM |  | > 100 µM | 86.5 µM | 69.8 µM |  | > 100 µM | > 100 µM | > 100 µM |  | 
6 | O=C1C=C(NCCc2ccc(O)cc2)C(=O)C=C1NCCc1ccc(O)cc1 | > 100 µM | > 100 µM | > 100 µM | > 100 µM | > 100 µM |  | > 100 µM | > 100 µM | > 100 µM | > 100 µM | 
7 | CN1CCN2CCN(C)CCN(CC1)CC2 | > 100 µM | > 100 µM | > 100 µM |  | > 100 µM | > 100 µM | > 100 µM | > 100 µM | > 100 µM | > 100 µM | 
8 | ClC1(Cl)C2CCOC21n1cnc2ccccc21 (stereo not given) |  | > 100 µM | > 100 µM | > 100 µM |  | > 100 µM | > 100 µM | > 100 µM |  | > 100 µM | 
9 | CNC(=S)c1nnsc1N | > 100 µM | > 100 µM | > 100 µM | > 100 µM |  | > 100 µM | > 100 µM |  | > 100 µM | > 100 µM | 
10 | CN(C)CCNc1nc2c(c(=O)n(C)c(=O)n2C)n1C | > 100 µM | > 100 µM | > 100 µM |  | > 100 µM | > 100 µM | > 100 µM | > 100 µM | > 100 µM | > 100 µM | 
11 | CC(C)N=C(NC#N)NS(=O)(=O)c1cnccc1NC1CCCCCCC1 | > 100 µM | > 100 µM | > 100 µM | > 100 µM |  | > 100 µM | > 100 µM | > 100 µM | > 100 µM | > 100 µM | 
12 | CCN(CC)C(=O)N1CN(c2ccccc2)C2(CCN(CCCC3(c4ccc(F)cc4)OCCO3)CC2)C1=O |  | 38.3 µM | 90.2 µM | 28.7 µM |  | 35.7 µM | 26.7 µM | 89.7 µM |  | 31.5 µM | 
13 | COC(=O)/C=C/[C@H]1[C@H](C)N1S(=O)(=O)c1ccc(C)cc1 (stereo not given in full) | > 100 µM | > 100 µM | > 100 µM | > 100 µM |  | > 100 µM | > 100 µM | > 100 µM | > 100 µM | > 100 µM | 
14 | O=C(CCCN1CCC(Nc2ccc(F)cc2)(c2nnnn2C2CCCCC2)CC1)c1ccc(F)cc1 | 28.6 µM | 28.4 µM | 35.4 µM | > 100 µM |  | 30.7 µM | 30.5 µM | 36 µM | 12.5 µM | 31.8 µM | 
15 | Cc1ccc(S(=O)(=O)N/N=C2/C3CC4CCC2C4C3)cc1 (stereo not given) | > 100 µM | > 100 µM | > 100 µM | > 100 µM | > 100 µM | > 100 µM | > 100 µM |  | > 100 µM | > 100 µM | 
16 | COc1cc(CNC(=O)CCCCCCCCCCSC#N)ccc1O |  | 34.3 µM | 54.6 µM | > 100 µM | 34.8 µM | 31.3 µM | 21.1 µM | 48.3 µM | 30.3 µM | 26.2 µM | 
17 | CSc1cc(Cl)c(C)cc1S(=O)(=O)NC(=O)NNc1cnc2ccccc2n1 | > 100 µM | > 100 µM | > 100 µM | > 100 µM |  | > 100 µM | > 100 µM | > 100 µM | > 100 µM | > 100 µM | 
18 | COC1=C2C[C@](OC)(C#CC=CC#CC2O)CC1(C)C (stereo not given in full) | > 100 µM | > 100 µM | > 100 µM | > 100 µM |  | > 100 µM | > 100 µM | > 100 µM |  | > 100 µM | 
19 | CN1CCN(C(=S)N(C(=O)c2ccc(Cl)cc2)C2CCCCC2)CC1 | > 100 µM | > 100 µM |  | > 100 µM | > 100 µM | > 100 µM | > 100 µM | > 100 µM |  | > 100 µM | 
20 | O=C1OCC(CN2CCC(n3c(=O)[nH]c4ccccc43)CC2)=C1c1ccccc1 | 89.6 µM | 71.7 µM | 57.1 µM | 77.2 µM |  | 78.7 µM | 61 µM | 67.3 µM | 68.6 µM | 60.6 µM | 
21 | O=C(CN1CCOCC1)c1ccc2c(c1)oc(=O)n2CCN1CCCCC1 | > 100 µM | > 100 µM | > 100 µM |  |  | > 100 µM | > 100 µM | > 100 µM | > 100 µM | > 100 µM | 
22 | CSc1nnc2n1-c1ccccc1SCC2 | > 100 µM |  | > 100 µM | > 100 µM | > 100 µM |  | > 100 µM | > 100 µM | > 100 µM | > 100 µM | 
23 | CN=C(NC#N)NCc1ccccc1 | > 100 µM |  | > 100 µM | > 100 µM | > 100 µM |  | > 100 µM | > 100 µM | > 100 µM | > 100 µM | 
